# Data from ChEMBL document CHEMBL1151272, “Anti-inflammatory acylphloroglucinol derivatives from Hops (Humulus lupulus)” (J Nat Prod, 2005).
# Key:
# [1] = molecular target: T1, Prostaglandin G/H synthase 1 (Ovis aries) (UniProt P05979); assay: Inhibition of sheep COX1 measured by oxygen consumption at 100 uM
# T1 sequence (whole entry): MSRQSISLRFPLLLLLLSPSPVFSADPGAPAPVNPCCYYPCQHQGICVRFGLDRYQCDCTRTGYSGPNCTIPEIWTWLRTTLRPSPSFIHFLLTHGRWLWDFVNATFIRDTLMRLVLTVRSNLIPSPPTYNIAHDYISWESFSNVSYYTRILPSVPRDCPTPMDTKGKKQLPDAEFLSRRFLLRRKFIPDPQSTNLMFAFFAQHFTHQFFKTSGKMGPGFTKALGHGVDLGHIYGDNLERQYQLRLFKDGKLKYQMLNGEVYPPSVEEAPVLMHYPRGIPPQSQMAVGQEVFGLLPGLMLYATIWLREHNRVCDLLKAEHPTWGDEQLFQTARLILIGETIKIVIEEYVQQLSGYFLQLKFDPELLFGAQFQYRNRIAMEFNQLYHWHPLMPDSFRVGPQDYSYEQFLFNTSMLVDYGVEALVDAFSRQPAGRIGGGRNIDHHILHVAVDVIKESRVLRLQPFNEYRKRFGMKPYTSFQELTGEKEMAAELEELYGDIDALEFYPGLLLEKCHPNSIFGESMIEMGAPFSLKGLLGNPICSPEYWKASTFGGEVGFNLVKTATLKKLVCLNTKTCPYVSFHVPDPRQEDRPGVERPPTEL
# [2] = molecular target: T2, Prostaglandin G/H synthase 1 (Ovis aries, UniProt P05979); assay: Inhibition of sheep COX1 measured by oxygen consumption
# T2 sequence (P05979 whole entry): T1 sequence (whole entry)
Compound,IC50 [2] [µM],other results
CC(C)CC(=O)c1c(O)cc(O)cc1O[C@@H]1O[C@H](CO)[C@@H](O)[C@H](O)[C@H]1O,–,inhibition [1]: 12%
CC(C)C(=O)c1c(O)cc(O)cc1O[C@@H]1O[C@H](CO)[C@@H](O)[C@H](O)[C@H]1O,23.7,–
Oc1cc(O)cc(O)c1 [PHLOROGLUCINOL],–,AC50 [2]: Active
CCC(C)C(=O)c1c(O)cc(O)cc1O[C@@H]1O[C@H](CO)[C@@H](O)[C@H](O)[C@H]1O (stereo partly specified),131,–

# Continued, in another order:
IC50 [2] [µM],Compound,other results
58.7,CC(C)C(=O)c1c(O)cc(O[C@@H]2O[C@H](CO)[C@@H](O)[C@H](O)[C@H]2O)cc1O,–
3.8,CC(C)C(=O)c1c(O)cc(O)cc1O [PHLOROISOBUTYROPHENONE],–
